Results on 54 molecules are retold here after patent US8993483B2, “Combination of active substances with insecticidal properties” (Bayer Intellectual Property GmbH, priority 2003, dated 2015).

As for `Cc1cc(Cl)cc(C(=O)NC(C)C)c1NC(=O)c1cc(OCC(F)(F)F)nn1-c1ncccc1Cl`, the melting point – broadly, the temperature of the solid-liquid transition – lay within 217 to 218 °C. Consider `CC(C)NC(=O)c1cc(Cl)cc(Cl)c1NC(=O)c1cc(C(F)(F)F)nn1-c1ncccc1Cl`, for which the melting point lay in the range of 200 to 201 °C. The result for `CC(C)NC(=O)c1cc(Cl)cc(Cl)c1NC(=O)c1cc(OCC(F)(F)F)nn1-c1ncccc1Cl` reads 232 to 235 °C. For the molecule `CC(C)NC(=O)c1cc(Cl)cc(Cl)c1NC(=O)c1cc(Cl)nn1-c1ncccc1Cl`, the melting point was in the range of 197 to 199 °C. The result for `CC(C)NC(=O)c1cc(Cl)cc(Cl)c1NC(=O)c1cc(Br)nn1-c1ncccc1Cl` reads 188 to 190 °C; that for `CCNC(=O)c1cc(Cl)cc(C)c1NC(=O)c1cc(C(F)(F)F)nn1-c1ncccc1Cl`, 163 to 164 °C. The same measure for `CNC(=O)c1cc(Cl)cc(C)c1NC(=O)c1cc(OCC(F)(F)F)nn1-c1ncccc1Cl`: 207 to 208 °C. Molecule `CCNC(=O)c1cc(Cl)cc(C)c1NC(=O)c1cc(Br)nn1-c1ncccc1Cl` gave a melting point of 194 to 195 °C. The molecule `CCNC(=O)c1cc(Cl)cc(Cl)c1NC(=O)c1cc(C(F)(F)F)nn1-c1ncccc1Cl` displayed a melting point of 201 to 202 °C. Turning to `CCNC(=O)c1cc(Cl)cc(Cl)c1NC(=O)c1cc(Cl)nn1-c1ncccc1Cl`, the melting point is 206 to 208 °C. The result for `CCNC(=O)c1cc(Cl)cc(Cl)c1NC(=O)c1cc(Br)nn1-c1ncccc1Cl` reads 214 to 215 °C. In the case of `Cc1cc(Cl)cc(C(=O)NC(C)(C)C)c1NC(=O)c1cc(C(F)(F)F)nn1-c1ncccc1Cl`, the melting point lay in the range of 223 to 225 °C.

Consider `Cc1cc(Cl)cc(C(=O)NC(C)(C)C)c1NC(=O)c1cc(Cl)nn1-c1ncccc1Cl`, for which the melting point fell in the range of 163 to 165 °C. With `Cc1cc(Cl)cc(C(=O)NC(C)(C)C)c1NC(=O)c1cc(Br)nn1-c1ncccc1Cl`, the melting point was 159 to 161 °C. Take `CC(C)(C)NC(=O)c1cc(Cl)cc(Cl)c1NC(=O)c1cc(C(F)(F)F)nn1-c1ncccc1Cl`: the melting point lay in the range of 170 to 172 °C. As for `CC(C)(C)NC(=O)c1cc(Cl)cc(Cl)c1NC(=O)c1cc(Br)nn1-c1ncccc1Cl`, the melting point lay within 179 to 180 °C. Take `CNC(=O)c1cc(Cl)cc(C)c1NC(=O)c1cc(Cl)nn1-c1ncccc1Cl`: the melting point lay within 225 to 226 °C.

For `CNC(=O)c1cc(Br)cc(C)c1NC(=O)c1cc(C(F)(F)F)nn1-c1ncccc1Cl`, the melting point lay in the range of 222 to 223 °C.

`CNC(=O)c1cc(Br)cc(C)c1NC(=O)c1cc(Cl)nn1-c1ncccc1Cl`: the melting point lay within 140 to 141 °C.

On to `CCNC(=O)c1cc(Br)cc(C)c1NC(=O)c1cc(Cl)nn1-c1ncccc1Cl`, for which the melting point fell in the range of 192 to 194 °C. As for `Cc1cc(Br)cc(C(=O)NC(C)C)c1NC(=O)c1cc(Cl)nn1-c1ncccc1Cl`, the melting point was in the range of 152 to 153 °C. The result for `Cc1cc(Br)cc(C(=O)NC(C)(C)C)c1NC(=O)c1cc(Cl)nn1-c1ncccc1Cl` reads 224 to 225 °C; that for `CNC(=O)c1cc(Br)cc(C)c1NC(=O)c1cc(Br)nn1-c1ncccc1Cl`, 147 to 149 °C.

In the case of `CCNC(=O)c1cc(Br)cc(C)c1NC(=O)c1cc(Br)nn1-c1ncccc1Cl`, the melting point fell in the range of 194 to 196 °C. As for `Cc1cc(Br)cc(C(=O)NC(C)C)c1NC(=O)c1cc(Br)nn1-c1ncccc1Cl`, the melting point lay in the range of 185 to 187 °C. `Cc1cc(Br)cc(C(=O)NC(C)(C)C)c1NC(=O)c1cc(Br)nn1-c1ncccc1Cl` registered a melting point of 215 to 221 °C.

With `CNC(=O)c1cc(I)cc(C)c1NC(=O)c1cc(C(F)(F)F)nn1-c1ncccc1Cl`, the melting point lay in the range of 199 to 200 °C. The same measure for `CCNC(=O)c1cc(I)cc(C)c1NC(=O)c1cc(C(F)(F)F)nn1-c1ncccc1Cl`: 199 to 200 °C; for `Cc1cc(I)cc(C(=O)NC(C)C)c1NC(=O)c1cc(C(F)(F)F)nn1-c1ncccc1Cl`: 188 to 189 °C; for `CNC(=O)c1cc(I)cc(C)c1NC(=O)c1cc(Cl)nn1-c1ncccc1Cl`: 233 to 234 °C. For `CCNC(=O)c1cc(I)cc(C)c1NC(=O)c1cc(Cl)nn1-c1ncccc1Cl`, the melting point lay in the range of 196 to 197 °C.

As for `Cc1cc(I)cc(C(=O)NC(C)C)c1NC(=O)c1cc(Cl)nn1-c1ncccc1Cl`, the melting point fell in the range of 189 to 190 °C. Molecule `Cc1cc(I)cc(C(=O)NC(C)(C)C)c1NC(=O)c1cc(Cl)nn1-c1ncccc1Cl` yielded a melting point of 228 to 229 °C. For `CNC(=O)c1cc(Cl)cc(Cl)c1NC(=O)c1cc(C(F)(F)F)nn1-c1ncccc1Cl`, the melting point was 155 to 157 °C.

Turning to `CNC(=O)c1cc(I)cc(C)c1NC(=O)c1cc(Br)nn1-c1ncccc1Cl`, the melting point is 229 to 230 °C.

In the case of `Cc1cc(I)cc(C(=O)NC(C)C)c1NC(=O)c1cc(Br)nn1-c1ncccc1Cl`, the melting point lay within 191 to 192 °C. Take `CNC(=O)c1cc(Br)cc(Br)c1NC(=O)c1cc(C(F)(F)F)nn1-c1ncccc1Cl`: the melting point was 162 to 163 °C. Molecule `CCNC(=O)c1cc(Br)cc(Br)c1NC(=O)c1cc(C(F)(F)F)nn1-c1ncccc1Cl` had a melting point of 188 to 189 °C. Regarding `CC(C)NC(=O)c1cc(Br)cc(Br)c1NC(=O)c1cc(C(F)(F)F)nn1-c1ncccc1Cl`, the melting point lay within 192 to 193 °C. The same measure for `CC(C)(C)NC(=O)c1cc(Br)cc(Br)c1NC(=O)c1cc(C(F)(F)F)nn1-c1ncccc1Cl`: 246 to 247 °C; for `CNC(=O)c1cc(Br)cc(Br)c1NC(=O)c1cc(Cl)nn1-c1ncccc1Cl`: 188 to 190 °C. `CCNC(=O)c1cc(Br)cc(Br)c1NC(=O)c1cc(Cl)nn1-c1ncccc1Cl` yielded a melting point of 192 to 194 °C. `CC(C)(C)NC(=O)c1cc(Br)cc(Br)c1NC(=O)c1cc(Cl)nn1-c1ncccc1Cl` displayed a melting point of 210 to 212 °C. In the case of `CNC(=O)c1cc(Cl)cc(Cl)c1NC(=O)c1cc(OCC(F)(F)F)nn1-c1ncccc1Cl`, the melting point lay in the range of 192 to 195 °C. In turn, `CNC(=O)c1cc(Br)cc(Br)c1NC(=O)c1cc(Br)nn1-c1ncccc1Cl` had a melting point of 166 to 168 °C. As to `CC(C)NC(=O)c1cc(Br)cc(Br)c1NC(=O)c1cc(Br)nn1-c1ncccc1Cl`, the melting point was 162 to 163 °C. As to `CC(C)(C)NC(=O)c1cc(Br)cc(Br)c1NC(=O)c1cc(Br)nn1-c1ncccc1Cl`, the melting point was 194 to 196 °C. For `CC(C)(C)NC(=O)c1cc(Br)cc(Cl)c1NC(=O)c1cc(C(F)(F)F)nn1-c1ncccc1Cl`, the melting point lay in the range of 143 to 145 °C. In turn, `Cc1cc(Br)cc(C(=O)N(C)C)c1NC(=O)c1cc(C(F)(F)F)nn1-c1ncccc1Cl` gave a melting point of 207 to 208 °C. The same measure for `CN(C)C(=O)c1cc(Cl)cc(Cl)c1NC(=O)c1cc(Cl)nn1-c1ncccc1Cl`: 231 to 232 °C; for `CN(C)C(=O)c1cc(Br)cc(Br)c1NC(=O)c1cc(Br)nn1-c1ncccc1Cl`: 189 to 190 °C; for `CN(C)C(=O)c1cc(Cl)cc(Cl)c1NC(=O)c1cc(C(F)(F)F)nn1-c1ncccc1Cl`: 225 to 227 °C. Turning to `CN(C)C(=O)c1cc(Br)cc(Br)c1NC(=O)c1cc(C(F)(F)F)nn1-c1ncccc1Cl`, the melting point fell in the range of 228 to 229 °C. The result for `CNC(=O)c1cc(Cl)cc(Cl)c1NC(=O)c1cc(Br)nn1-c1ncccc1Cl` reads 245 to 246 °C.
